Assay results as given in US20250179440A1, “METHOD FOR CULTURING CANCER ORGANOID AND METHOD FOR SCREENING TEST SUBSTANCE” (TOPPAN Holdings Inc., priority 2022, published 2025).

Test system: blood vessel network of the cell structure (HUVEC/NHDF)
Test: Blood vessel network formation in the cell structure co-cultured with PDOs (anti-CD31 immunostaining)
Format: cell-based, human
Conditions: added factor of EGM2 added singly to DMEM and EBM2; FIGS. 9 and 10
Experimental: The pre-culture of the patient-derived PDOs and the preparation of the cell structure were performed by the same method as in Example 1. For the co-culture of the PDOs and the cell structure, a method for top surface culture of the cell structure using single-celled PDOs was adopted. In addition, regarding the sample for which the culture was continued, the co-culture of the PDOs and the cell structure was performed by the same method as in Example 1, except that the medium was replaced using each medium at a timing of once every three or four days. Fluorescence immunostaining, image capturing, and image analysis were performed by the same methods as in Example 1. Next, in order to identify the inhibitory factors among the added factors, media obtained by adding each of the added factors of EGM2 shown in Table 7 to D-MEM and EBM2, and media obtained by excluding each of the added factors shown in Table 7 from EGM2 were prepared, and vascular network evaluation was performed. The scale bars in FIGS. 9 and 10 indicate 500 μm. […] In FIG. 10, +means that the added factor is included, and −means that the added factor is excluded.

C[C@]12CCC(=O)C=C1CC[C@@H]1[C@@H]2[C@@H](O)C[C@@]2(C)[C@H]1CC[C@]2(O)C(=O)CO [Hydrocortisone]
formation of the blood vessel network: the formation of the blood vessel network was suppressed
